Measured values published in ChEMBL document CHEMBL3046185, “Antifeedant activity of neo-clerodane diterpenoids from Teucrium arduini” (2002).

Tested on: Spodoptera littoralis
Experiment: Antifeedant activity against Spodoptera littoralis using glass-fibre disks at 100 ppm measured after 18 hr by binary choice feeding bioassay relative to control
Format: functional

Structure (SMILES)	AFI [%]
CC(=O)OC[C@@]12CCC[C@@H]3[C@@]4(C[C@@H](c5ccoc5)OC4=O)[C@H](C)C[C@@H](OC(C)=O)[C@]31CO2 [DIACETYLMONTANIN D]	34.6
C[C@@H]1CC(=O)[C@@]23COC(=O)C2=CCC[C@@H]3[C@@]12C[C@@H](c1ccoc1)OC2=O [TEUSCORDINON]	55.7
C[C@@H]1C[C@@H](O)[C@@]23COC(=O)C2=CCC[C@@H]3[C@@]12C[C@@H](c1ccoc1)OC2=O [6BETA-HYDROXYTEUSCORDIN]	73.1
C[C@@H]1C[C@@H]2OC(=O)C3=C2[C@H](CCC3)[C@@]12C[C@@H](c1ccoc1)OC2=O [TEUCVIN]	52.2
C[C@@H]1C[C@@H](O)[C@@]2(CO)C(CO)=C[C@@H](O)C[C@@H]2[C@@]12C[C@@H](c1ccoc1)OC2=O [19-DEACETYLTEUSCORODOL]	-54.5
C[C@@H]1C[C@@H]2OC(=O)C3=C2[C@H](CC[C@@H]3O)[C@@]12C[C@@H](c1ccoc1)OC2=O [ISOTEUFLIFIN]	11
C[C@@H]1C[C@@H](O)[C@@]23COC(=O)C2=C[C@@H](O)C[C@@H]3[C@@]12C[C@@H](c1ccoc1)OC2=O [TEUGIN]	11.1
C[C@@H]1C[C@@H](O)[C@@]23CO[C@]2(CO)CCC[C@@H]3[C@@]12C[C@@H](c1ccoc1)OC2=O [MONTANIN D]	82.1
C[C@@H]1C[C@@H](O)[C@@]23COC(=O)C2C[C@@H](O)C[C@@H]3[C@@]12C[C@@H](c1ccoc1)OC2=O (some centres undefined) [DIHYDROTEUGIN]	-1.2
